Experiment: Effect of EO adduct added to 62% K-glyphosate solution (clear or hazy)
Type: physicochemical
Conditions: ~25% added into a 62% K-glyphosate solution
Text: Therefore, even a slight reduction in concentration of the higher EO adduct could improve the cloud point of glyphosate formulation dramatically.

OCCOCCO [diethylene glycol]
Appearance of solution after addition: clear solution

Source: US8357636B2, “Alkoxylated alkylamines/alkyl ether amines with peaked distribution” (Akzo Nobel N.V., priority 2004, dated 2013)
